Data from article PMC8480901 (PLoS ONE, 2021).
Values joined by “and” are separate entries in the source; they are usually repeats but may differ in a detail not shown here. Identical values can stand only once.

Tested on: human PBMCs
Experiment: LPS-induced cytokine and chemokine levels in human PBMC supernatant (Luminex, ELISA)
Format: cell-based
Conditions: for IL-1β % reduction / IL-1β [pg/mL], Mean / IL-1β [pg/mL], individual value / IL-6 % reduction / IL-6 [pg/mL], Mean / IL-6 [pg/mL], individual value / IL-8 % reduction / IL-8 [pg/mL], Mean / IL-8 [pg/mL], individual value / TNF-α % reduction / TNF-α [pg/mL], Mean / TNF-α [pg/mL], individual value: LPS-stimulated human PBMC supernatant

C[C@@H]1C[C@H]2[C@@H]3CCC4=CC(=O)C=C[C@]4(C)[C@@]3(F)[C@@H](O)C[C@]2(C)[C@@]1(O)C(=O)CO [Dexamethasone]
IL-1β % reduction (0.0003 µM): -0.241% | IL-1β [pg/mL], Mean (0.0003 µM): 12816 pg/mL | IL-1β [pg/mL], individual value (0.0003 µM): 13584 pg/mL and 12048 pg/mL | IL-6 % reduction (0.0003 µM): 11% | IL-6 [pg/mL], Mean (0.0003 µM): 31175 pg/mL | IL-6 [pg/mL], individual value (0.0003 µM): 28443 pg/mL and 33908 pg/mL | IL-8 % reduction (0.0003 µM): 3.74% | IL-8 [pg/mL], Mean (0.0003 µM): 2934 pg/mL | IL-8 [pg/mL], individual value (0.0003 µM): 2852 pg/mL and 3016 pg/mL | TNF-α % reduction (0.0003 µM): -22% | TNF-α [pg/mL], Mean (0.0003 µM): 10856 pg/mL | TNF-α [pg/mL], individual value (0.0003 µM): 11484 pg/mL and 10228 pg/mL | IL-1β % reduction (0.001 µM): -2.29% | IL-1β [pg/mL], Mean (0.001 µM): 13078 pg/mL | IL-1β [pg/mL], individual value (0.001 µM): 12492 pg/mL and 13663 pg/mL | IL-6 % reduction (0.001 µM): 15% | IL-6 [pg/mL], Mean (0.001 µM): 29537 pg/mL | IL-6 [pg/mL], individual value (0.001 µM): 27758 pg/mL and 31316 pg/mL | IL-8 % reduction (0.001 µM): 7% | IL-8 [pg/mL], Mean (0.001 µM): 2887 pg/mL | IL-8 [pg/mL], individual value (0.001 µM): 2894 pg/mL and 2879 pg/mL | TNF-α % reduction (0.001 µM): 26% | TNF-α [pg/mL], Mean (0.001 µM): 6648 pg/mL | TNF-α [pg/mL], individual value (0.001 µM): 6422 pg/mL and 6874 pg/mL | IL-1β % reduction (0.003 µM): 3% | IL-1β [pg/mL], Mean (0.003 µM): 12382 pg/mL | IL-1β [pg/mL], individual value (0.003 µM): 12441 pg/mL and 12322 pg/mL | IL-6 % reduction (0.003 µM): 23% | IL-6 [pg/mL], Mean (0.003 µM): 26733 pg/mL | IL-6 [pg/mL], individual value (0.003 µM): 25302 pg/mL and 28163 pg/mL | IL-8 % reduction (0.003 µM): 16% | IL-8 [pg/mL], Mean (0.003 µM): 2739 pg/mL | IL-8 [pg/mL], individual value (0.003 µM): 2727 pg/mL and 2751 pg/mL | TNF-α % reduction (0.003 µM): 36% | TNF-α [pg/mL], Mean (0.003 µM): 5707 pg/mL | TNF-α [pg/mL], individual value (0.003 µM): 6398 pg/mL and 5017 pg/mL | IL-1β % reduction (0.01 µM): 12% | IL-1β [pg/mL], Mean (0.01 µM): 11212 pg/mL | IL-1β [pg/mL], individual value (0.01 µM): 11146 pg/mL and 11278 pg/mL | IL-6 % reduction (0.01 µM): 26% | IL-6 [pg/mL], Mean (0.01 µM): 25776 pg/mL | IL-6 [pg/mL], individual value (0.01 µM): 24216 pg/mL and 27336 pg/mL | IL-8 % reduction (0.01 µM): 23% | IL-8 [pg/mL], Mean (0.01 µM): 2621 pg/mL | IL-8 [pg/mL], individual value (0.01 µM): 2587 pg/mL and 2655 pg/mL | TNF-α % reduction (0.01 µM): 34% | TNF-α [pg/mL], Mean (0.01 µM): 5893 pg/mL | TNF-α [pg/mL], individual value (0.01 µM): 5929 pg/mL and 5857 pg/mL | IL-1β % reduction (0.03 µM): 36% | IL-1β [pg/mL], Mean (0.03 µM): 8206 pg/mL | IL-1β [pg/mL], individual value (0.03 µM): 8428 pg/mL and 7983 pg/mL | IL-6 % reduction (0.03 µM): 46% | IL-6 [pg/mL], Mean (0.03 µM): 19008 pg/mL | IL-6 [pg/mL], individual value (0.03 µM): 18119 pg/mL and 19897 pg/mL | IL-8 % reduction (0.03 µM): 24% | IL-8 [pg/mL], Mean (0.03 µM): 2601 pg/mL | IL-8 [pg/mL], individual value (0.03 µM): 2572 pg/mL and 2630 pg/mL | TNF-α % reduction (0.03 µM): 61% | TNF-α [pg/mL], Mean (0.03 µM): 3547 pg/mL | TNF-α [pg/mL], individual value (0.03 µM): 4619 pg/mL and 2475 pg/mL | IL-1β % reduction (0.1 µM): 49% | IL-1β [pg/mL], Mean (0.1 µM): 6554 pg/mL | IL-1β [pg/mL], individual value (0.1 µM): 6360 pg/mL and 6748 pg/mL | IL-6 % reduction (0.1 µM): 46% | IL-6 [pg/mL], Mean (0.1 µM): 18754 pg/mL | IL-6 [pg/mL], individual value (0.1 µM): 18604 pg/mL and 18905 pg/mL | IL-8 % reduction (0.1 µM): 39% | IL-8 [pg/mL], Mean (0.1 µM): 2364 pg/mL | IL-8 [pg/mL], individual value (0.1 µM): 2111 pg/mL and 2616 pg/mL | TNF-α % reduction (0.1 µM): 76% | TNF-α [pg/mL], Mean (0.1 µM): 2172 pg/mL | TNF-α [pg/mL], individual value (0.1 µM): 1964 pg/mL and 2380 pg/mL | IL-1β % reduction (0.3 µM): 47% | IL-1β [pg/mL], Mean (0.3 µM): 6792 pg/mL | IL-1β [pg/mL], individual value (0.3 µM): 7094 pg/mL and 6491 pg/mL | IL-6 % reduction (0.3 µM): 53% | IL-6 [pg/mL], Mean (0.3 µM): 16544 pg/mL | IL-6 [pg/mL], individual value (0.3 µM): 15027 pg/mL and 18061 pg/mL | IL-8 % reduction (0.3 µM): 26% | IL-8 [pg/mL], Mean (0.3 µM): 2569 pg/mL | IL-8 [pg/mL], individual value (0.3 µM): 2679 pg/mL and 2458 pg/mL | TNF-α % reduction (0.3 µM): 67% | TNF-α [pg/mL], Mean (0.3 µM): 2969 pg/mL | TNF-α [pg/mL], individual value (0.3 µM): 3059 pg/mL and 2880 pg/mL | IL-1β % reduction (1 µM): 47% | IL-1β [pg/mL], Mean (1 µM): 6720 pg/mL | IL-1β [pg/mL], individual value (1 µM): 7115 pg/mL and 6325 pg/mL | IL-6 % reduction (1 µM): 53% | IL-6 [pg/mL], Mean (1 µM): 16339 pg/mL | IL-6 [pg/mL], individual value (1 µM): 14576 pg/mL and 18103 pg/mL | IL-8 % reduction (1 µM): 46% | IL-8 [pg/mL], Mean (1 µM): 2244 pg/mL | IL-8 [pg/mL], individual value (1 µM): 2290 pg/mL and 2198 pg/mL | TNF-α % reduction (1 µM): 74% | TNF-α [pg/mL], Mean (1 µM): 2402 pg/mL | TNF-α [pg/mL], individual value (1 µM): 1732 pg/mL and 3073 pg/mL | all measured LPS-induced cytokines and chemokines in supernatant (human PBMCs, 0.0003-1 µM): dose-dependent reductions
